This is an account of results in patent publication US4156724A, “N-acylamino-alpha-arylacetamido cephalosporins and antibacterial compositions and methods containing them” (Sumitomo Chemical Company, Limited, priority 1974, dated 1979).

Holding throughout (format): cell-based
In assay [1] the test system is Staphylococcus aureus 209 P. As to the kind of experiment: Minimum Inhibitory Concentration, Staphylococcus aureus 209 P. The conditions noted are these: Staphylococcus aureus 209 P; for MIC: read-out: Minimum Inhibitory Concentration. Here is the method:
(§1) anti-microbial activity tests were carried out on the compounds obtained in the Examples.

Assay [2] has as its system Staphylococcus aureus FS 289. As to the kind of experiment: Minimum Inhibitory Concentration, Staphylococcus aureus FS 289. Here is the method: as §1
*Staphylococcus aureus FS 289: strain resistant to penicillin

Another assay concerns Escherichia coli NIHJ. Nature of the assay: Minimum Inhibitory Concentration, Escherichia coli NIHJ. As to conditions: Escherichia coli NIHJ; for MIC: read-out: Minimum Inhibitory Concentration. As for the experimental part: as §1
In assay [3] the test system is Klebsiella pneumoniae 602. As to the kind of experiment: Minimum Inhibitory Concentration, Klebsiella pneumoniae 602. As to conditions: for MIC: Klebsiella pneumoniae, 602, Klebsiella pneumoniae 602, read-out: Minimum Inhibitory Concentration. Here is the method: as §1
In a further assay the test system is Proteus vulgaris HX 19. As to the kind of experiment: Minimum Inhibitory Concentration, Proteus vulgaris HX 19. As to conditions: Proteus vulgaris HX 19; for MIC: HX19, read-out: Minimum Inhibitory Concentration. As for the experimental part:
as §1

Assay [4] relates to Pseudomonas aeruginosa 104. Nature of the assay: Minimum Inhibitory Concentration, Pseudomonas aeruginosa 104. The conditions noted are these: Pseudomonas aeruginosa 104; for MIC: read-out: Minimum Inhibitory Concentration. Here is the method:
as §1

Another assay concerns Serratia No. 72. As to the kind of experiment: Minimum Inhibitory Concentration, Serratia No. 72. Here is the method:
as §1

Assay [5] concerns Enterobacter aerogeneus No. 75. As to the kind of experiment: Minimum Inhibitory Concentration, Enterobacter aerogeneus No. 75. The conditions noted are these: Enterobacter aerogeneus No. 75; for MIC: read-out: Minimum Inhibitory Concentration. Here is the method:
as §1

Setting [6] is: FS289, Staphylococcus aureus FS 289, strain resistant to penicillin, read-out: Minimum Inhibitory Concentration.

SMILES strings stand for the structures. In brackets after ≈: the same amount, converted by molar mass. Where two headings read alike, the source gives them in different places.

Turning to `Cn1nnnc1SCC1=C(C(=O)O)N2C(=O)[C@@H](NC(=O)[C@H](NC(=O)c3cnc4cccnc4c3O)c3ccc(NC(N)=O)cc3)[C@H]2SC1` [Example 22], the MIC in assay [1] turned out to be 0.78 µg/mL (≈ 1.13 µM); in assay [2] (setting [6]) it was 6.25 µg/mL (≈ 9.04 µM); with Escherichia coli NIHJ, 1.56 µg/mL (≈ 2.26 µM); in assay [3], 1.56 µg/mL (≈ 2.26 µM); with Proteus vulgaris HX 19, 0.1 µg/mL (≈ 0.145 µM); in assay [4], 3.13 µg/mL (≈ 4.53 µM). Besides, the MIC in the assay with Serratia No. 72 was determined as 12.5 µg/mL (≈ 18.1 µM); in assay [5], 3.13 µg/mL (≈ 4.53 µM).
Take `NC(=O)Nc1ccc([C@@H](NC(=O)c2cnc3cccnc3c2O)C(=O)N[C@@H]2C(=O)N3C(C(=O)O)=C(CSc4cnn[nH]4)CS[C@H]23)cc1` [Example 23]: the MIC in assay [1] was 1.56 µg/mL (≈ 2.31 µM); in assay [2] (setting [6]), 6.25 µg/mL (≈ 9.24 µM); with Escherichia coli NIHJ, 3.13 µg/mL (≈ 4.63 µM); in assay [3], 1.56 µg/mL (≈ 2.31 µM); in the assay with Proteus vulgaris HX 19 it was 0.2 µg/mL (≈ 0.296 µM); in assay [4], 3.13 µg/mL (≈ 4.63 µM). Further, the values for the MIC (in the assay with Serratia No. 72; in assay [5]) were 12.5 µg/mL (≈ 18.5 µM) and 3.13 µg/mL (≈ 4.63 µM), respectively.
On to `NC(=O)Nc1ccc([C@@H](NC(=O)c2cnc3cccnc3c2O)C(=O)N[C@@H]2C(=O)N3C(C(=O)O)=C(CSc4nnc(S)s4)CS[C@H]23)cc1` [Example 24], for which the MIC in assay [1] worked out at 1.56 µg/mL (≈ 2.15 µM); in assay [2] (setting [6]) it was 6.25 µg/mL (≈ 8.61 µM); with Escherichia coli NIHJ it was 3.13 µg/mL (≈ 4.31 µM); in assay [3], 1.56 µg/mL (≈ 2.15 µM); with Proteus vulgaris HX 19 it was 0.39 µg/mL (≈ 0.537 µM); in assay [4] it was 3.13 µg/mL (≈ 4.31 µM). In addition, the MIC with Serratia No. 72 came out at 12.5 µg/mL (≈ 17.2 µM); in assay [5], 3.13 µg/mL (≈ 4.31 µM).
In the case of `Cc1ccc2c(O)c(C(=O)N[C@@H](C(=O)N[C@@H]3C(=O)N4C(C(=O)O)=C(CSc5nnc(C)s5)CS[C@H]34)c3ccc(NC(N)=O)cc3)cnc2n1` [Example 25], the MIC was determined as 1.56 µg/mL (≈ 2.16 µM) in assay [1]; 6.25 µg/mL (≈ 8.66 µM) in assay [2] (setting [6]); 3.13 µg/mL (≈ 4.34 µM) in the assay with Escherichia coli NIHJ; 3.13 µg/mL (≈ 4.34 µM) in assay [3]; 0.39 µg/mL (≈ 0.54 µM) with Proteus vulgaris HX 19; 3.13 µg/mL (≈ 4.34 µM) in assay [4]. For the same molecule, the MIC with Serratia No. 72 was determined as 12.5 µg/mL (≈ 17.3 µM); in assay [5], 6.25 µg/mL (≈ 8.66 µM).
As to `Cc1ccc2c(O)c(C(=O)N[C@@H](C(=O)N[C@@H]3C(=O)N4C(C(=O)O)=C(CSc5nnnn5C)CS[C@H]34)c3ccc(NC(N)=O)cc3)cnc2n1` [Example 26], the MIC was 1.56 µg/mL (≈ 2.21 µM) in assay [1]; 6.25 µg/mL (≈ 8.86 µM) in assay [2] (setting [6]); 3.13 µg/mL (≈ 4.44 µM) in the assay on Escherichia coli NIHJ; 3.13 µg/mL (≈ 4.44 µM) in assay [3]; 0.2 µg/mL (≈ 0.283 µM) in the assay on Proteus vulgaris HX 19; 3.13 µg/mL (≈ 4.44 µM) in assay [4]. Moreover, the MIC against Serratia No. 72 amounted to 12.5 µg/mL (≈ 17.7 µM); in assay [5], 6.25 µg/mL (≈ 8.86 µM).
With `CN(C)c1ccc2ncc(C(=O)N[C@@H](C(=O)N[C@@H]3C(=O)N4C(C(=O)O)=C(CSc5cnn[nH]5)CS[C@H]34)c3ccc(NC(N)=O)cc3)c(O)c2n1` [Example 27], the MIC in assay [1] amounted to 1.56 µg/mL (≈ 2.17 µM); in assay [2] (Staphylococcus aureus, FS289, read-out: Minimum Inhibitory Concentration), 6.25 µg/mL (≈ 8.68 µM); with Escherichia coli NIHJ, 3.13 µg/mL (≈ 4.35 µM); in assay [3], 1.56 µg/mL (≈ 2.17 µM); with Proteus vulgaris HX 19, 0.2 µg/mL (≈ 0.278 µM); in assay [4], 3.13 µg/mL (≈ 4.35 µM). Also, the values for the MIC (with Serratia No. 72; in assay [5]) were 12.5 µg/mL (≈ 17.4 µM) and 3.13 µg/mL (≈ 4.35 µM), respectively.
As for `Cc1nnc(SCC2=C(C(=O)O)N3C(=O)[C@@H](NC(=O)[C@H](NC(=O)c4cnc5ccc(N(C)C)nc5c4O)c4ccc(NC(N)=O)cc4)[C@H]3SC2)s1` [Example 28], the MIC in assay [1] is 1.56 µg/mL (≈ 2.08 µM); in assay [2] (setting [6]), 6.25 µg/mL (≈ 8.32 µM); in the assay with Escherichia coli NIHJ it was 1.56 µg/mL (≈ 2.08 µM); in assay [3], 1.56 µg/mL (≈ 2.08 µM); in the assay on Proteus vulgaris HX 19 it was 0.1 µg/mL (≈ 0.133 µM); in assay [4] it was 3.13 µg/mL (≈ 4.17 µM). Also, the MIC in the assay on Serratia No. 72 was 12.5 µg/mL (≈ 16.6 µM); in assay [5] it was 3.13 µg/mL (≈ 4.17 µM).
As for `CN(C)c1ccc2ncc(C(=O)NC(C(=O)NC3C(=O)N4C(C(=O)[O-])=C(CSc5nnnn5C)CSC34)c3ccc(NC(N)=O)cc3)c(O)c2n1.[Na+]` (stereo not shown) [Example 29], the “Minimum Inhibitory Concentration” value in assay [1] amounted to 0.78 µg/mL; in assay [2] (Staphylococcus aureus FS 289, strain resistant to penicillin), 6.25 µg/mL; in the assay with Escherichia coli NIHJ, 1.56 µg/mL; in assay [3] (Klebsiella pneumoniae 602), 1.56 µg/mL; with Proteus vulgaris HX 19, 0.2 µg/mL; in assay [4], 3.13 µg/mL. The results for the “Minimum Inhibitory Concentration” value (in the assay with Serratia No. 72; in assay [5]) were 12.5 µg/mL and 3.13 µg/mL, respectively.
